Laboratory results from paper PMC7150767, “Monocarboxylate Transporter 6-Mediated Interactions with Prostaglandin F2α: In Vitro and In Vivo Evidence Utilizing a Knockout Mouse Model” (Pharmaceutics, 2020).
Each block holds one molecule with its values, some of them ahead of it.

Experiments:
[1] = biological target: T1, human monocarboxylate transporter 6 (hMCT6) (Homo sapiens, UniProt O15375); experiment: cis-inhibition of [3H]PGF2α uptake in oocytes at […]; type: cell-based; details: read-out: % inhibition at 10 μM (range over the PGs)
T1 construct: gene SLC16A5
T1 sequence (O15375 1-505): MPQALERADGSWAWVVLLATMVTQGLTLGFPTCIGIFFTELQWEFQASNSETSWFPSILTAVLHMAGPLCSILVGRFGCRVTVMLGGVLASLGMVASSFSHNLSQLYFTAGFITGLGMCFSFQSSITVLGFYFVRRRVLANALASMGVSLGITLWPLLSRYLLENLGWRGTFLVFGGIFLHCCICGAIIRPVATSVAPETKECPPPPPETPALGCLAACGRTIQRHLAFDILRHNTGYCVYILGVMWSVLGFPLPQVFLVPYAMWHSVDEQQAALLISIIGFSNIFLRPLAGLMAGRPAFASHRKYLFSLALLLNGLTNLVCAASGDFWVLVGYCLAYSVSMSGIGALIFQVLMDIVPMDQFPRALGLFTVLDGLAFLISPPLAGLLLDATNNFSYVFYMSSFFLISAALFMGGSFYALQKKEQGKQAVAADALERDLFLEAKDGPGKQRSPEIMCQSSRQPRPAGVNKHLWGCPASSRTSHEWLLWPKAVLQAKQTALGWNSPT

[2] = biological target: T2, murine monocarboxylate transporter 6 (mMct6) (Mus musculus, UniProt G5E8K6); experiment: cis-inhibition of [3H]PGF2α uptake in oocytes, […] ([…] inhibition); type: cell-based
T2 construct: gene Slc16a5; full-length, untagged, cRNA in Xenopus laevis oocytes
T2 sequence (G5E8K6 1-468): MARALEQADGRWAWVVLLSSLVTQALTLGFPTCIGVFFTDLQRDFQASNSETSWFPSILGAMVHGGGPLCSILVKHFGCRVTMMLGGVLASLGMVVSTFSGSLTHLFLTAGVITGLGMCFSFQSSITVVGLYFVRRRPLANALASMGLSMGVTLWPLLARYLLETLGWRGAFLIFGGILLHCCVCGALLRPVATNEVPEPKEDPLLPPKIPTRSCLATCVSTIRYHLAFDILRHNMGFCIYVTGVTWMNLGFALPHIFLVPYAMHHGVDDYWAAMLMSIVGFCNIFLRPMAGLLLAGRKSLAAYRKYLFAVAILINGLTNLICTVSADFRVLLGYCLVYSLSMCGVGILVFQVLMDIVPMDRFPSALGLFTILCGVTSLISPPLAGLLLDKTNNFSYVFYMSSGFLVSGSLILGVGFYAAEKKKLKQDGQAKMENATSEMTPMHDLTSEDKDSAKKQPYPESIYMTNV

[3] = biological target: T1, human monocarboxylate transporter 6 (hMCT6); experiment: cis-inhibition of [3H]PGF2α uptake in oocytes; type: cell-based
[4] = biological target: T2, murine monocarboxylate transporter 6 (mMct6); experiment: cis-inhibition of [3H]PGF2α uptake in oocytes, […] ([…] inhibition); type: cell-based; remark: listed apart in the source
[5] = substrate: CCCCC[C@H](O)/C=C/[C@@H]1[C@@H](C/C=C\CCCC(=O)O)[C@@H](O)C[C@H]1O; experiment: cells, lysate or membranes; type: cell-based, Homo sapiens; details: pH 7.4
[6] = substrate: CCCCC[C@H](O)/C=C/[C@@H]1[C@@H](C/C=C\CCCC(=O)O)[C@@H](O)C[C@H]1O; experiment: cells, lysate or membranes; type: cell-based, Mus musculus; details: pH 7.4

Molecule: CCCCC[C@H](O)/C=C/[C@H]1C(=O)C[C@H](O)[C@@H]1C/C=C\CCCC(=O)O [prostaglandin D2]
inhibition at 10 µM [1]: 51 to 74%

inhibition at 10 µM [2]: ~28%
Molecule: CCCCNc1cc(C(=O)O)cc(S(N)(=O)=O)c1Oc1ccccc1 [bumetanide]
cis-inhibition of [3H]PGF2α uptake in oocytes [3]: Bumetanide and probenecid also inhibited human MCT6-mediated PGF2α uptake

inhibition at 10 µM [1]: 51 to 74%
Molecule: CCCCC[C@H](O)/C=C/[C@@H]1[C@@H](CC(=O)CCCCC(=O)O)[C@@H](O)C[C@H]1O [6-keto prostaglandin F1α]

Molecule: CCCCC[C@H](O)/C=C/[C@H]1[C@H](O)CC(=O)[C@@H]1C/C=C\CCCC(=O)O [prostaglandin E2]
inhibition at 10 µM [1]: 51 to 74%

inhibition at 500 µM [4]: ~94%
Molecule: CCCN(CCC)S(=O)(=O)c1ccc(C(=O)O)cc1 [probenecid]
cis-inhibition of [3H]PGF2α uptake in oocytes [3]: Bumetanide and probenecid also inhibited human MCT6-mediated PGF2α uptake

B1: human monocarboxylate transporter 6 (hMCT6) (Homo sapiens) (protein)
chain: T1 sequence (O15375 1-505)
notes: pGH19-hMCT6 cRNA in Xenopus laevis oocytes
Km [5]: 246 µM

B2: murine monocarboxylate transporter 6 (mMct6) (Mus musculus) (protein)
chain: T2 sequence (G5E8K6 1-468)
notes: full-length, untagged, cRNA (NM_001080934.1) in Xenopus laevis oocytes
Km [6]: 40.1 µM
